# Key:
# [1] = test system: HO-1 mRNA in brain; test: Brain HO-1 mRNA levels after NDGA; format: in vivo, mouse; details: 6 hours after last dose, data not shown
# Method: We used an acute paradigm of MPTP administration (10 mg MPTP/kg X 3, every two hours), known to cause about a 50% loss of striatal dopamine and its metabolites DOPAC and HVA and significant loss of tyrosine hydroxylase (TH) immunopositive neurons in the substantia nigra pars compacta (SNpc) on the 7th day. […] The doses that were used to determine the efficacy of NDGA against MPTP were determined by evaluation of brain HO-1 levels. Both 50 and 100 mg/kg administered twice a day induced a dose dependent increase in HO-1 mRNA levels at 6 hours after last dose of NDGA.
# [2] = test system: HRE-luciferase reporter (HT22 hippocampal cell line); test: HRE-luc reporter assay; format: cell-based; details: Mus musculus, HT-22, 3 h; at 10 µM; read-out: HRE-luc fold activation
# [3] = Iron binding constant, calcein displacement assay; format: physicochemical; details: calcein displacement
# Description: Calcein displacement assay in the presence of varied concentrations of flavonoids and catechols has been used. Calcein release from its complex with iron was monitored by fluorescence as described in [26].
# [4] = test system: VEGF mRNA in immature primary cortical neurons; test: VEGF mRNA induction, real-time RT-PCR; format: cell-based; details: Fig. 4B
# Method: For VEGF gene expression studies, total RNA was isolated from immature primary cortical neurons, pretreated overnight with the indicated concentration of a bioactive compound, using the NucleoSpin RNA II kit (Macherey-Nagel, Bethlehem, PA) according to manufacturer’s protocol. Real-time PCR was performed in triplicate as a duplex reaction using a VEGF (Mm01281449_m1) gene expression assay with a 6-carboxyfluorescein-labeled probe, and a β actin gene expression assay with a VIC-labeled probe (Applied Biosystems, Foster City, CA), so that gene amplification could be normalized to β actin. These experiments were performed using a 7500 Real-time PCR System (Applied Biosystems) using standard PCR protocol and amplification conditions.
# [5] = test system: C57Bl6 mice, MPTP model of Parkinson's disease; test: Stereological counts of Nissl- and TH-positive neurons in SNpc, MPTP model; format: in vivo, mouse; details: NDGA 100mg/kg/day, Fig. 7
# Method: Acute MPTP-intoxication paradigm was used to test the neuroprotective effects of NDGA using male C57Bl6 mice. In this protocol, 10-week-old C57Bl6 mice (n = 8-10 per group) were divided into four different groups consisting of 1) a control group treated with saline alone; 2) a group treated with MPTP alone; 3) a group treated with NDGA alone and; 4) group treated with NDGA in combination with MPTP. NDGA was dissolved in 1:4 ethanol:neobee oil (a derivative of coconut oil). MPTP 10 mg/kg free base was administered intraperitoneally three times a day every two hours. Animals with NDGA in combination with MPTP were administered NDGA by oral gavage with 50 and 100mg/kg/day body weight of the drug in 100 microliter volume once a day for 4 days before MPTP and once a day for 3 days after MPTP. On the day of MPTP NDGA was administered to mice 2 hours before the initiation of MPTP. Animals belonging to MPTP and control groups received the vehicle (ethanol:neobee oil, 1:4) whereas the drug alone group received respective doses of NDGA at the same frequency. All animals were sacrificed on the 7th day after MPTP. […]
# [6] = test system: primary neuronal cultures treated with 5 mM HCA; test: Glutathione depletion (HCA) model, MTT viability; format: cell-based, rat; details: glutathione depletion model, Fig. 5
# Method: Primary neuronal cultures were prepared from the forebrains of Sprague-Dawley rat embryos (E17) and plated on 96 well plates at a 10^6 cells/ml density. After 24 hours, cells were rinsed with warm PBS and then placed in minimum Essential Medium (MEM; Life Technologies, Grand Island, NY) containing 5 mM HCA in the presence of a compound of interest at varied concentrations. Cells were incubated for 24 h or longer to see 90% cell death in HCA treated controls. Viability was assessed by the MTT (4,5-dimethylthiazol-2-yl)-2,5-diphenyltetrazolium bromide) assay.
smiles,measurement,setting,value
"CC(Cc1ccc(O)c(O)c1)C(C)Cc1ccc(O)c(O)c1 (stereo not shown) [compound 28, 4,4'-(2,3-dimethylbutane-1,4-diyl)dibenzene-1,2-diol]",increase in HO-1 mRNA levels,[1]; 50 mg/kg twice a day,1.2 fold
same,increase in HO-1 mRNA levels,[1]; 100 mg/kg twice a day,6 fold
same,fold induction at 10 µM,[2],2 ± 0.2
same,Iron complex Diss. Const,[3],2.5 ± 0.3 µM
same,VEGF induction potency relative to FG-4592,[4],at least 2 times
same,MPTP-induced loss of total (Nissl-positive) and TH-immunopositive neurons in SNpc,[5],significant attenuation
same,concentration at which neuroprotection begins,[6],2.5 µM

# Source: paper PMC5201116, “Bioactive Flavonoids and Catechols as Hif1 and Nrf2 Protein Stabilizers - Implications for Parkinson’s Disease” (Aging and Disease, 2016)
